“Also recorded” adds a separate entry of the source. Bridge positions count the residues as written; N and C are the ends. Square brackets hold non-standard residues; d marks the D form. * marks the point of attachment. 2Nal = N[C@@H](Cc1ccc2ccccc2c1)C(=O)O; Benzoyl(4-F) = O=C(c1ccc(F)cc1)*; Cit = NC(=O)NCCC[C@H](N)C(=O)O
Key:
CXCR4 = target: T1, CXCR4 (Rattus norvegicus, UniProt O08565); experiment: Transwell migration of rat lymphocytes in response to CXCL12; assay type: cell-based; settings: CXCL12 100 ng/ml; antibody against CXCR4 10 μg/ml; FIG. 8
T1 construct: endogenous in cells; host or cells: rat peripheral blood mononuclear cells / lymphocytes (Ficoll-Histopaque isolated)
T1 sequence (O08565 whole entry): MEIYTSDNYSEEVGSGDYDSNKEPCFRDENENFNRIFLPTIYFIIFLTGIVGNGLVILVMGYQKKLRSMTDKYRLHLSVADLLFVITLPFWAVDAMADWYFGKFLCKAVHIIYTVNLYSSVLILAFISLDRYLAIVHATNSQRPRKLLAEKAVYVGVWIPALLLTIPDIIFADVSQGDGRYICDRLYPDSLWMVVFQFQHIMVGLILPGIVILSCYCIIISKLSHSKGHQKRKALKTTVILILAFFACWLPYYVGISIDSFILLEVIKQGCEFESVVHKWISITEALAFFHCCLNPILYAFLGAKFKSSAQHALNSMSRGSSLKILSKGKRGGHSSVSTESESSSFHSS
Description: Rat peripheral blood cells were loaded on Ficoll-Histopaque gradient (Histopaque-1077-1, Sigma) and the peripheral blood mononuclear cells (PBMC) were isolated. Rat PBMC migration was assessed in 24-well chemotaxis chambers (6.5-mm diameter, 5-μm pore polycarbonate transwell culture insert; Costar, Cambridge, Mass.). 600 μl RPMI 1640 with 1% BSA (migration buffer) with or without 100 ng/ml of CXCL12α (Peprotech) were added to the lower wells, and 2×10^5 cells suspended in 100 μl of RPMI 1640 with 1% BSA were added to the upper wells. After three hours of incubation, the membrane was removed and migrating cells were counted for 1 min using fluorescence activated cell sorting (FACS).
In order to evaluate the effect of the CXCR4 antagonist 4F-benzoyl-TN14003 and neutralizing antibodies to the receptor on the recovery of rat skin, the inventors first tested their ability to inhibit the migration of rat lymphocytes in response to CXCL12. Migration assay was carried out on total rat lymphocytes separated by Ficoll gradient and their migrating ability to medium containing CXCL12 was examined. Lymphocytes were incubated with the CXCR4 antagonist 4F-benzoyl-TN14003, or an antibody against CXCR4 (10 μg/ml).

[1] = test system: partial thickness burns in a rat model; experiment: Rat partial thickness burn wound healing, histological evaluation; assay type: in vivo
Excerpt: In order to examine the different phases in burn wound healing and the involvement of the chemokine CXCL12 and the receptor CXCR4, the following experiments were done. Wistar female rats were anesthetized and their back was shaved. 1 cm^2 burns were inflicted with a metal rod that has been immersed in a hot boiling water bath and laid on the posterior part of the hip and back for 2-3 seconds. All experiments were approved by the Animal care committee of the Medical Center, Tel-Aviv and the Hebrew University. Heterozygous mice bearing a GFP reporter knocked-in allele to the CX3CR1 locus (Qu et al. 2004) were maintained at the Weizmann Institute of Science Animal Facility, and burns were inflicted as described above. Each group of 3 animals was injected subcutaneously to the burned area with PBS. Animals were sacrificed at the indicated times after burn infliction: 0, 6 hr, 1 day, 3 days, 5 days and 7 days. Histopathological diagnosis was confirmed for each specimen. Histological sections were prepared from formalin-fixed, paraffin-embedded tissues stained with Hematoxylin and Eosin. Evaluation to the level of epithelialization and white blood cells (WBC) in the epidermis and dermis was made to each section by a scale from 1-5. The sections were scored by two independent pathologists.
In other experiments, treated rats were injected subcutaneously to the burned area with one of the following: PBS, mAb against Rat CXCR4 (12G5 clone, R&D Systems Inc., Minneapolis, Minn.), or the small peptide CXCR4 inhibitor 4F-benzoyl-TN14003 (4F-benzoyl-Aig-Arg-Nal-Cys-Tyr-Cit-Lys-DLys-Pro-Tyr-Arg-Cit-Cys-Arg-NH2, SEQ ID NO:52; Tamamura et al., 2003). All animals were sacrificed 120 hr after injury. Histopathological diagnosis was confirmed for each specimen. Histological sections were prepared from formalin-fixed, paraffin-embedded tissues stained with Hematoxylin and Eosin. Evaluation to the level of epithelialization and white blood cells (WBC) in the dermis was made to each section by a scale from 1-5. The grading scale was as follows: 0=No inflammation or epithelialization; 1=Low inflammation or epithelialization; 2=Low to moderate inflammation or epithelialization; 3 Moderate inflammation or epithelialization; 4=High inflammation or epithelialization; 5=Very high inflammation or epithelialization. Each section was evaluated by two independent pathologists.
Next, the inhibitory effect of CXCR4 antagonists on burn wound healing was examined (FIG. 9). Inhibitors were injected subcutaneously to the burned area at 0, 1 day, and 3 days (20 μg per injection), and animals were sacrificed 5 days post burn. […] A small but not significant decrease in the PMN population in the dermis was observed (FIG. 10). […]

[2] = rat burn, 20 μg per injection s.c. at 0, 1 day, 3 days, 5 days post burn, FIG. 11

4F-benzoyl-Arg-Arg-Nal-Cys-Tyr-Cit-Lys-DLys-Pro-Tyr-Arg-Cit-Cys-Arg-NH2 ({Benzoyl(4-F)}-RR[2Nal]CY[Cit]K[dK]PYR[Cit]CR-NH2; disulfide 4-13 (inferred)) [4F-benzoyl-TN14003]
effect on the migration of rat lymphocytes in response to CXCL12 (CXCR4): strong inhibitory effect
accumulation of PMN cell population in the epidermis [1, 2]: not affected
eosinophil accumulation in the dermis [1, 2]: reduced eosinophilia; also recorded: strong and significant inhibition
epithelialization ([1]; rat burn, 20 μg per injection subcutaneously to the burned area at 0, 1 day, 3 days, sacrificed 5 days post burn, FIG. 9): improved epithelialization; also recorded: increased epithelialization
potency in improving wound healing in vivo, peptide antagonist versus neutralizing mAb ([1]; rat partial thickness burns): more potent than the neutralizing mAb
